Structures can show the parent of a compound that is named as a salt.
These compounds were tested against T1, GSK3β (Homo sapiens, UniProt P49841) (assay: GSK3β Scintillation Proximity Assay (ATP competition)). Conditions: recombinant human GSK3; 1 μM ATP; Km of ATP 20 μM used to calculate Ki; 20 minutes at room temperature.
T1 construct: purchased Dundee University, UK
T1 sequence (P49841 whole entry): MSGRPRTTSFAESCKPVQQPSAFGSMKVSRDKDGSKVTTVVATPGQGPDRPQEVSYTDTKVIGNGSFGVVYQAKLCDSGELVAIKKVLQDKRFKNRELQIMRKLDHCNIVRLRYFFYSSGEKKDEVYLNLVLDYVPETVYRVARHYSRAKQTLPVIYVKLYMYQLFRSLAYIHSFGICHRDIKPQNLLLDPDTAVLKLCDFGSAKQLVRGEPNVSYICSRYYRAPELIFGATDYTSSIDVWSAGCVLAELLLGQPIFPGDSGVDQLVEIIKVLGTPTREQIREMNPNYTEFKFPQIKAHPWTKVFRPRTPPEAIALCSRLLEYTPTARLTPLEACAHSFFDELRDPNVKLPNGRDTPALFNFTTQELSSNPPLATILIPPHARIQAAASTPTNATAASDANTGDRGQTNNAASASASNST
Format: biochemical
Experimental: Determination of ATP Competition in Scintillation Proximity GSK3β Assay.
GSK3β Scintillation Proximity Assay.
The competition experiments were carried out in duplicate with 10 different concentrations of the inhibitors in clear-bottom microtiter plates (Wallac, Finland). A biotinylated peptide substrate, Biotin-Ala-Ala-Glu-Glu-Leu-Asp-Ser-Arg-Ala-Gly-Ser(PO3H2)-Pro-Gln-Leu (AstraZeneca, Lund), was added at a final concentration of 1 μM in an assay buffer containing 1 mU recombinant human GSK3 (Dundee University, UK), 12 mM morpholinepropanesulfonic acid (MOPS), pH 7.0, 0.3 mM EDTA, 0.01% β-mercaptorethanol, 0.004% Brij 35 (a […] detergent), 0.5% glycerol and 0.5 μg BSA/25 μl. The reaction was initiated by the addition of 0.04 μCi [γ-^33P]ATP (Amersham, UK) and unlabelled ATP at a final concentration of 1 μM and assay volume of 25 μl. After incubation for 20 minutes at room temperature, each reaction was terminated by the addition of 25 μl stop solution containing 5 mM EDTA, […] ATP, 0.1% Triton X-100 and 0.25 mg streptavidin coated Scintillation Proximity Assay (SPA) beads (Amersham, UK). After 6 hours the radioactivity was determined in a liquid scintillation counter (1450 MicroBeta Trilux, Wallac). The inhibition curves were analysed by non-linear regression using GraphPad Prism, USA. The Km value of ATP for GSK3β, used to calculate the inhibition constants (Ki) of the various compounds, was 20 μM.
COc1ccc(-c2ccnc3[nH]c(-c4ccc(CN5CCCCC5)cc4)nc23)cc1 [Example 6, 7-(4-Methoxyphenyl)-2-[4-(piperidin-1-ylmethyl)phenyl]-3H-imidazo[4,5-b]pyridine hydrochloride] showed a Ki of 31 nM. Work on COc1cccc(-c2ccnc3[nH]c(-c4ccc(S(=O)(=O)N5CCN(C)CC5)cc4)nc23)c1 [Example 2, 7-(3-Methoxyphenyl)-2-{4-[(4-methylpiperazin-1-yl)sulfonyl]phenyl}-3H-imidazo[4,5-b]pyridine hydrochloride] yielded a Ki of 124 nM. Work on CN1CCN(C(=O)c2ccc(-c3nc4c(-c5cccnc5)ccnc4[nH]3)cc2)CC1 [Example 9, 2-{4-[(4-Methylpiperazin-1-yl)carbonyl]phenyl}-7-pyridin-3-yl-3H-imidazo[4,5-b]pyridine hydrochloride] yielded a Ki of 254 nM. COc1ccc(-c2ccnc3[nH]c(-c4ccc(C(=O)NCCN5CCOCC5)cc4)nc23)cc1 [Example 7, 4-[7-(4-Methoxyphenyl)-3H-imidazo[4,5-b]pyridin-2-yl]-N-(2-morpholin-4-ylethyl)benzamide hydrochloride] showed a Ki of 44 nM.
